This note sets out measurements from patent US20070032521A1, “Use of c-kit inhibitors for treating type II diabetes” (AB Science, priority 2003, published 2007).

By IC50 is commonly meant the point on the concentration scale where inhibition reaches its midpoint. Read a low IC50 as greater potency in that assay. In general, melting point refers to the temperature of the solid-liquid transition.

For data set [1], the target named is T1, purified intracellular domain of c-kit (Homo sapiens, UniProt P10721).
T1 construct: purified intracellular domain of c-kit expressed in baculovirus; made in house
T1 sequence (P10721 546-976 limits assumed): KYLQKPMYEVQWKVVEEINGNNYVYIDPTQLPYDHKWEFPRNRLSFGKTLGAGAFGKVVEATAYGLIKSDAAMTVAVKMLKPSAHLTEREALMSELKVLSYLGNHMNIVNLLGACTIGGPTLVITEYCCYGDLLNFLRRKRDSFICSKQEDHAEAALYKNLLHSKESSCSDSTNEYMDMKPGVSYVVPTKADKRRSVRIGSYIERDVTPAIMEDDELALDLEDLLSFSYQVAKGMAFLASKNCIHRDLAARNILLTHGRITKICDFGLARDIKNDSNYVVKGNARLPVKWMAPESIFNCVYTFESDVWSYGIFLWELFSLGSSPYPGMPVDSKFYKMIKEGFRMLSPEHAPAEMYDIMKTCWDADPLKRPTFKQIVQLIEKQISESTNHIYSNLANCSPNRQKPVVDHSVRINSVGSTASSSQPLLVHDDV
In words: in vitro TK inhibition assay (ELISA, phosphorylation of tyrosine containing target peptide). Format: biochemical. The conditions noted are these: purified intracellular domain of c-kit expressed in baculovirus. As to the method: in vitro TK Inhibition Assays
Experiments were performed using purified intracellular domain of c-kit expressed in baculovirus. Estimation of the kinase activity was assessed by the phosphoiylation of tyrosine containing target peptide estimated by established ELISA assay.
A general note: ELISA stands for enzyme-linked immunosorbent assay.

In another data set the test system is male db/db mice. In words: Effect of c-kit inhibitors on serum glucose, insulin, triglycerides, cholesterol and NEFA levels in db/db mice. It counts as in vivo, mouse. The source says:
Effect of different c-kit inhibitors on serum glucose, insulin, triglycerides, cholesterol and non esterified fatty acids levels in db/db mice
The objective of this study is to assess the effects of different c-kit inhibitors on serum glucose, insulin, triglycerides, cholesterol and non esterified fatty acids levels in male db/db mice dosed orally, once-a-day, for 5 days.
30 male 9/11 weeks old C57BL/Ks J Rj-db (db/db) mice (Janvier, France or Harlan, France), weighing in the target range of 30 to 50 g, will be included in this study.
One to three days before beginning the treatments (T0), mice will be weighed and blood samples will be collected through the retro-orbital plexus under isoflurane anesthesia. Blood samples will be kept at room temperature for 5 to 10 min to form a spontaneous clot, then put in ice until they are centrifuged at 3500×g for 10-15 min at 4° C. An aliquot of serum will be used for measuring glucose levels.
Six groups of 5 mice will be formed with respect to homogeneous glycemia values by using a randomization table. Animal showing glycemia below 20 mM will be excluded from the study.
From T1 to T5, the mice will be weighed and dosed once daily for 5 consecutive days at constant time.
At T5, 2 hours after the last administration, blood samples will be collected through the retro-orbital plexus under isoflurane anesthesia. Blood samples will be kept at room temperature for 5 to 10 min to form a spontaneous clot, then put in ice until they are centrifuged at 3500×g for 10 min at 4° C. Serum will be aliquoted and frozen at −20° C. until use. After blood collection, the mice will be euthanized by cervical dislocation.
Serum glucose and triglycerides levels will be determined using the Synchron C×4 analyzer. Serum non esterified fatty acids levels will be measured manually using a colorimetric method, and insulin levels determined by ELISA.
The results will be expressed as mean±SEM: • Glucose levels (mM) at T5 • Insulin levels (nM) at T5 • Triglycerides levels (mM) at T5 • Non esterified fatty acids levels (mM) at T5
For each parameter, a % of effect will be calculated according to following formula: ((vehicle group−test group)/vehicle group)*100
Statistical analysis will consist in a one-way analysis of variance followed by multiple comparisons versus the vehicle group (Dunnett's test). In case the equal variance test fails, a Kruskall-Wallis one-way analysis of variance on ranks will be proposed. A difference will be considered significant for p<0.05.

[2] abbreviates: as compared to vehicle, 10 mg/kg p.o. for 5 days.
Where [3] appears, read: serum, male db/db mice, 10 mg/kg p.o. once daily for 5 days, T5, mean ± SEM, n = 5.

As to `Cc1ccc(NC(=O)c2ccc3c(c2)OCO3)cc1Nc1nc(-c2cccnc2)cs1` [Compound 051], the melting point lay in the range of 130 to 132 °C. The IC50 in data set [1] is less than 10 µM.

`Cc1ccc(NC(=O)Nc2ccc(OC(F)F)cc2)cc1Nc1nc(-c2cccnc2)cs1` [Compound 021, 1-(4-Difluoromethoxy-phenyl)-3-[4-methyl-3-(4-pyridin-3-yl-thiazol-2-ylamino)-phenyl]-urea] had an IC50 in data set [1] of less than 10 µM.

`Cc1ccc(NC(=O)c2ccc(N(C)C)cc2)cc1Nc1nc(-c2cccnc2)cs1` [Compound 047, 4-Dimethylamino-N-[4-methyl-3-(4-pyridin-3-yl-thiazol-2-ylamino)-phenyl]-benzamide]: the IC50 in data set [1] is less than 10 µM.

As to `Cc1ccc(NC(=O)Nc2ccc(C)c(Nc3nc(-c4cccnc4)cs3)c2)cc1` [Compound 026, 1-[4Methyl-3-(4-pyridin-3-yl-thiazol-2-ylamino)-phenyl]-3-p-tolyl-urea], the melting point lay in the range of 210 to 215 °C. The compound also registered an IC50 in data set [1] of less than 10 µM.

In data set [1], `Cc1cncc(-c2csc(Nc3cc(NC(=O)c4ccc(CN5CCN(C)CC5)cc4)ccc3C)n2)c1` [Compound 084, N-{4-Methyl-3-[4-(5-methyl-pyridin-3-yl)-thiazol-2-ylamino]-phenyl}-4-(4-methyl-piperazin-1-ylmethyl)-benzamide] came in with an IC50 of less than 10 µM.

`Cc1ccc(NC(=O)c2ccc(CNC(=O)OC(C)(C)C)cc2)cc1Nc1nc(-c2cccnc2)cs1` [Compound 073, {4-[4-Methyl-3-(4-pyridin-3-yl-thiazol-2-ylamino)-phenylcarbamoyl]-benzyl}-carbamic acid tert-butyl ester] came in with an IC50 in data set [1] of less than 10 µM.

As to `Cc1ccc(NC(=O)c2ccc(-c3ccncc3)cc2)cc1Nc1nc(-c2cccnc2)cs1` [Compound 046, N-[4-Methyl-3-(4-pyridin-3-yl-thiazol-2-ylamino)-phenyl]-4-pyridin-4-yl-benzamide], the melting point fell in the range of 254 to 256 °C.

Consider `Cc1ccc(NC(=O)c2cc(Br)c(CNCCCN3CCOCC3)c(Br)c2)cc1Nc1nc(-c2cccnc2)cs1` [Compound 087, 3,5-Dibromo-N-[4-methyl-3-(4-pyridin-3-yl-thiazol-2-ylamino)-phenyl]-4-[(3-morpholin-4-yl-propylamino)-methyl]-benzamide], for which the IC50 in data set [1] is less than 10 µM.

The compound `Cc1ccc(NC(=O)c2ccc(C(C)N3CCN(C)CC3)cc2)cc1Nc1nc(-c2cccnc2)cs1` (centres unmarked) [Compound 082] came in with a melting point of 153 to 155 °C. The IC50 in data set [1] is less than 10 µM.

The compound `Cc1ccc(NC(=O)N(C(=O)NC2CCCCC2)C2CCCCC2)cc1Nc1nc(-c2cccnc2)cs1` [Compound 016, 1-Cyclohexyl-1-(N-Cyclohexyl-formamide)-3-[4-methyl-3-(4-pyridin-3-yl-thiazol-2-ylamino)-phenyl]-urea] displayed an IC50 in data set [1] of less than 10 µM.

In data set [1], `Cc1ccc(NC(=O)c2ccc(CN3CCN(C)CC3)c(Br)c2)cc1Nc1nc(-c2cccnc2)cs1` [Compound 078, 3-Bromo-4-(4-methyl-piperazin-1-ylmethyl)-N-[4-methyl-3-(4-pyridin-3-yl-thiazol-2-ylamino)-phenyl]-benzamide] registered an IC50 of less than 10 µM.

As to `Cc1ccc(NC(=O)c2ccc(NS(=O)(=O)c3cccs3)cc2)cc1Nc1nc(-c2cccnc2)cs1` [Compound 044, N-[4Methyl-3-(4-pyridin-3-yl-thiazol-2-ylamino)-phenyl]-4-(thiophene-2-sulfonylamino)-benzamide], the melting point lay in the range of 230 to 233 °C.

In turn, `Cc1ccc(NC(=O)c2cccc(N(C)C)c2)cc1Nc1nc(-c2cccnc2)cs1` [Compound 088, 3-Dimethylamino-N-[4-methyl-3-(4-pyridin-3-yl-thiazol-2-ylamino)-phenyl]-benzamide] came in with a melting point of 197 to 198 °C. Also, the IC50 in data set [1] is less than 10 µM.

On to `Cc1ccc(NC(=O)CCCN2CCOCC2)cc1Nc1nc(-c2cccnc2)cs1` [Compound 096, N-[4-Methyl-3-(4-pyridin-3-yl-thiazol-2-ylamino)-phenyl]-4-morpholin-4-yl-butyramide], for which the melting point is 116 to 120 °C. Also, the IC50 in data set [1] was less than 10 µM.

Regarding `CN(CCOc1ccc(CC2SC(=O)NC2=O)cc1)c1ccccn1` (centres unmarked) [Rosiglitazone, rosiglitazone], in the data set on male db/db mice (setting [2]), the “Cholesterol Effect (%)” value came to 19%, the “Glucose Effect (%)” value turned out to be 59%, the “Insulin Effect (%)” value is 77% and the “NEFA Effect (%)” value was found to be 63%. Moreover, the “Triglycerides Effect (%)” value with male db/db mice (setting [2]) amounted to 71%. The NEFA with male db/db mice (serum non esterified fatty acids, male db/db mice, 10 mg/kg p.o. once daily for 5 days, T5, mean ± SEM, n = 5) was 0.31 ± 0.061 mM. For the same compound, in the data set with male db/db mice (setting [3]), the Cholesterol turned out to be 2.74 ± 0.47 mM, the Glucose was found to be 11.25 ± 2.65 mM, the Insulin was 0.82 ± 0.27 nM and the Triglycerides came out at 0.46 ± 0.10 mM.

Compound `Cc1ccc(NC(=O)Nc2cccc(F)c2)cc1Nc1nc(-c2cccnc2)cs1` [Compound 025, 1-(3-Fluoro-phenyl)-3-[4-methyl-3-(4-pyridin-3-yl-thiazol-2-ylamino)-phenyl]-urea] came in with a melting point of 210 to 215 °C. For the same compound, in data set [1], the IC50 was less than 10 µM.

For the compound `Cc1ccc(NC(=O)c2ccc(CN3CCN(C)CC3)c(C(F)(F)F)c2)cc1Nc1nc(-c2cccnc2)cs1` [Compound 075], the melting point was 118 to 120 °C. For the same compound, in data set [1], the IC50 is less than 10 µM.

`Cc1ccc(NC(=O)c2cccc(N3CCOCC3)c2)cc1Nc1nc(-c2cccnc2)cs1` [Compound 090, N-[4-Methyl-3-(4-pyridin-3-yl-thiazol-2-ylamino)-phenyl]-3-morpholin-4-yl-benzamide] showed a melting point of 247 to 248 °C. In addition, the IC50 in data set [1] is less than 10 µM.

For the compound `Cc1ccc(NC(=O)Nc2ccc(F)cc2)cc1Nc1nc(-c2cccnc2)cs1` [Compound 012, 1-(4-Fluoro-phenyl)-3-[4-methyl-3-(4-pyridin-3-yl-thiazol-2-ylamino)-phenyl]-urea], in data set [1], the IC50 was less than 10 µM.

On to `Cc1ccc(NC(=O)c2cccc(N3CCN(C)CC3)c2)cc1Nc1nc(-c2cccnc2)cs1` [Compound 089, 3-(4-Methyl-piperazin-1-yl)-N-[4-methyl-3-(4-pyridin-3-yl-thiazol-2-ylamino)-phenyl]-benzamide], for which the IC50 in data set [1] was less than 10 µM.

For `Cc1ccc(F)c(C(=O)Nc2ccc(C)c(Nc3nc(-c4cccnc4)cs3)c2)c1` [Compound 048, 2-Fluoro-5-methyl-N-[4-methyl-3-(4-pyridin-3-yl-thiazol-2-ylamino)-phenyl]-benzamide], the melting point was 103 to 106 °C. For the same compound, the IC50 in data set [1] was less than 10 µM.

Turning to `Cc1ccc(NC(=O)c2ccc(C(C)(C)C)cc2)cc1Nc1nc(-c2cccnc2)cs1` [Compound 049, 4-tert-Butyl-N-[4-methyl-3-(4-pyridin-3-yl-thiazol-2-ylamino)-phenyl]-benzamide], the melting point was 145 to 150 °C. For the same compound, the IC50 in data set [1] was less than 10 µM.

`Cc1ccc(NC(=O)c2cccc(F)c2)cc1Nc1nc(-c2cccnc2)cs1` [Compound 045, 3-Fluoro-N-[4-methyl-3-(4-pyridin-3-yl-thiazol-2-ylamino)-phenyl]-benzamide] returned a melting point of 184 to 186 °C.

In turn, `Cc1ccc(NC(=O)c2cccc(OCCN3CCOCC3)c2)cc1Nc1nc(-c2cccnc2)cs1` [Compound 052] showed a melting point of 75 to 80 °C. The same compound had an IC50 in data set [1] of less than 10 µM.
